Results published in ChEMBL document CHEMBL1156441, “Mechanism of inactivation of plasminogen activator inhibitor-1 by a small molecule inhibitor” (J Biol Chem, 2007).

Experiments:
Parameters in all cases: scale not given: the % may be the effect or the level left
Homo sapiens [1] = organism: Homo sapiens; assay: Inhibition of human non-glycosylated PAI1 D95A mutant using urokinase type plasminogen activator substrate assessed as change in IC50 value relative to wild type by direct chromogenic assay
Homo sapiens [2] = organism: Homo sapiens; assay: Inhibition of human non-glycosylated PAI1 K122A mutant using urokinase type plasminogen activator substrate assessed as change in IC50 value relative to wild type by direct chromogenic assay
Homo sapiens [3] = organism: Homo sapiens; assay: Inhibition of human non-glycosylated PAI1 R76A mutant using urokinase type plasminogen activator substrate assessed as change in IC50 value relative to wild type by direct chromogenic assay
Homo sapiens [4] = organism: Homo sapiens; assay: Inhibition of human non-glycosylated PAI1 K80A mutant using urokinase type plasminogen activator substrate assessed as change in IC50 value relative to wild type by direct chromogenic assay
Homo sapiens [5] = organism: Homo sapiens; assay: Inhibition of human non-glycosylated PAI1 T120A mutant using urokinase type plasminogen activator substrate assessed as change in IC50 value relative to wild type by direct chromogenic assay
Homo sapiens [6] = organism: Homo sapiens; assay: Inhibition of human non-glycosylated PAI1 T93A mutant using urokinase type plasminogen activator substrate assessed as change in IC50 value relative to wild type by direct chromogenic assay
Homo sapiens [7] = organism: Homo sapiens; assay: Inhibition of human non-glycosylated PAI1 Y79A mutant using urokinase type plasminogen activator substrate assessed as change in IC50 value relative to wild type by direct chromogenic assay
Homo sapiens [8] = organism: Homo sapiens; assay: Inhibition of human non-glycosylated PAI1 H143A mutant using urokinase type plasminogen activator substrate assessed as change in IC50 value relative to wild type by direct chromogenic assay
Homo sapiens [9] = organism: Homo sapiens; assay: Inhibition of human non-glycosylated PAI1 F114A mutant using urokinase type plasminogen activator substrate assessed as change in IC50 value relative to wild type by direct chromogenic assay
Homo sapiens [10] = organism: Homo sapiens; assay: Inhibition of human non-glycosylated PAI1 T94A mutant using urokinase type plasminogen activator substrate assessed as change in IC50 value relative to wild type by direct chromogenic assay
Homo sapiens [11] = organism: Homo sapiens; assay: Inhibition of human non-glycosylated PAI1 R118A mutant using urokinase type plasminogen activator substrate assessed as change in IC50 value relative to wild type by direct chromogenic assay

Compound `O=C(O)C(=O)c1cn(Cc2ccccc2)c2ccc(-c3ccc(OC(F)(F)F)cc3)cc12` has an Activity (Homo sapiens [1]) of 58%, an Activity (Homo sapiens [2]) of -25% and an Activity (Homo sapiens [3]) of 48%. For the same compound, the Activity (Homo sapiens [4]) was 14%, the Activity (Homo sapiens [5]) was -21% and the Activity (Homo sapiens [6]) was 27%. The Activity (Homo sapiens [7]) was 28%, the Activity (Homo sapiens [8]) was -14% and the Activity (Homo sapiens [9]) was 3%. The Activity (Homo sapiens [10]) was 54% and the Activity (Homo sapiens [11]) was 7%.
